Assay results taken from DBAASP.
In brackets after ≈: the same amount, converted by molar mass. Several values for one entry are separate records, joined by “and”; a condition that tells them apart may be missing. Identical values can stand only once.

Legend:
Test in all cases: ≥ marks a high value that may be exact or a test limit, other limits are often not marked, values filed in µg/mL are converted to µM
[1] = tested on: Bacillus subtilis AB91021
Bacillus subtilis = tested on: Bacillus subtilis
Escherichia coli = tested on: Escherichia coli
[2] = tested on: Micrococcus luteus AB93113
Micrococcus luteus = tested on: Micrococcus luteus
Pseudomonas aeruginosa = tested on: Pseudomonas aeruginosa
Staphylococcus aureus = tested on: Staphylococcus aureus
[3] = tested on: Batrachochytrium dendrobatidis JEL-197
[4] = tested on: Escherichia coli ATCC 25726
[5] = tested on: Staphylococcus aureus ATCC 25923
[6] = tested on: Bordetella bronchiseptica CUN 11844-99
[7] = tested on: Escherichia coli ATCC 25922
[8] = tested on: Pseudomonas aeruginosa CUN 4158-02
[9] = tested on: Staphylococcus aureus ATCC 43300
Vibrio cholerae CUN 09 = tested on: Vibrio cholerae CUN 09
[10] = tested on: Lacticaseibacillus casei ATCC 4646
[11] = tested on: Streptococcus gordonii Challis DL1
[12] = tested on: Streptococcus mitis ATCC 903
Streptococcus mutans = tested on: Streptococcus mutans
[13] = tested on: Streptococcus sanguinis NY101
[14] = tested on: Veillonella atypica PK1910
[15] = tested on: Enterobacter cloacae 218R
[16] = tested on: Enterococcus faecalis ATCC 29212
[17] = tested on: Enterococcus faecalis W61950
[18] = tested on: Enterococcus faecalis f43559
[19] = tested on: Enterococcus faecium mic80
[20] = tested on: Enterococcus faecium t62764
[21] = tested on: Escherichia coli ESBL 63103
[22] = tested on: Escherichia coli ESBL 64771
[23] = tested on: Klebsiella pneumoniae ESBL 61962
[24] = tested on: Klebsiella pneumoniae ESBL 63575
[25] = tested on: Pseudomonas aeruginosa 198
[26] = tested on: Pseudomonas aeruginosa 213
Pseudomonas aeruginosa 9 = tested on: Pseudomonas aeruginosa 9
[27] = tested on: Pseudomonas aeruginosa H1027
[28] = tested on: Pseudomonas aeruginosa H1030
[29] = tested on: Pseudomonas aeruginosa LES400
[30] = tested on: Pseudomonas aeruginosa PAO1 H103
[31] = tested on: Staphylococcus aureus C623
[32] = tested on: Stenotrophomonas maltophilia ATCC 13637
[33] = tested on: Pseudomonas aeruginosa PAK
[34] = tested on: Streptococcus mutans UA159

`CC[C@H](C)[C@H](NC(=O)[C@H](C)NC(=O)[C@H](CO)NC(=O)[C@@H]1CCCN1C(=O)[C@@H](NC(=O)[C@H](CC(C)C)NC(=O)[C@H](CO)NC(=O)[C@H](Cc1ccccc1)NC(=O)[C@H](CC(C)C)NC(=O)[C@@H](N)Cc1ccccc1)[C@@H](C)CC)C(=O)N[C@@H](CO)C(=O)NCC(=O)N[C@@H](CC(C)C)C(=O)N[C@H](C(=O)N[C@@H](CO)C(=O)N[C@@H](C)C(=O)N[C@@H](Cc1ccccc1)C(=O)N[C@@H](CCCCN)C(N)=O)[C@@H](C)CC` [FLFSLIPSAISGLISAFK] was tested, and the MIC [1] was 25.5 µM (≈ 48.7 µg/mL), the MIC (Bacillus subtilis) was 25.5 µM (≈ 48.8 µg/mL) and the MIC (Escherichia coli) was 9.47 µM and 9.5 µM. For the same compound, the MIC [2] was at least 42.6 µM, the MIC (Micrococcus luteus) was at least 42.6 µM and the MIC (Pseudomonas aeruginosa) was 47.5 µM. It also gave an MIC (Staphylococcus aureus) of 8.37 µM (≈ 16 µg/mL).

Work on `CC[C@H](C)[C@H](NC(=O)[C@@H](NC(=O)[C@@H]1CCCN1C(=O)[C@H](CC(C)C)NC(=O)[C@@H](N)Cc1ccccc1)[C@@H](C)CC)C(=O)N[C@H](C(=O)N[C@@H](CC(N)=O)C(=O)N[C@@H](CC(C)C)C(=O)N[C@@H](CC(C)C)C(=O)NCC(=O)N[C@@H](CCCCN)C(=O)N[C@@H](CC(C)C)C(=O)N[C@@H](CC(C)C)C(N)=O)[C@@H](C)O` [FLPIITNLLGKLL] yielded an MIC [3] of at least 100 µM, an MIC [4] of at least 100 µM and an MIC [5] of 6 µM (≈ 8.72 µg/mL).

For `CC(C)C[C@H](NC(=O)[C@H](CCCCN)NC(=O)CNC(=O)[C@H](CCCCN)NC(=O)[C@H](Cc1ccccc1)NC(=O)[C@H](CCCCN)NC(=O)[C@H](Cc1c[nH]c2ccccc12)NC(=O)[C@H](CCCN=C(N)N)NC(=O)[C@H](Cc1ccccc1)NC(=O)[C@H](CCCN=C(N)N)NC(=O)[C@H](CCCN=C(N)N)NC(=O)[C@H](Cc1ccc(O)cc1)NC(=O)[C@H](CCCCN)NC(=O)[C@H](CCCCN)NC(=O)[C@H](CS)NC(=O)CN)C(=O)N[C@@H](Cc1ccccc1)C(=O)N[C@@H](CC(C)C)C(=O)N[C@@H](Cc1ccccc1)C(=O)NCC(N)=O` [GCKKYRRFRWKFKGKLFLFG], the MIC [6] was 1.56 µM (≈ 4 µg/mL), the MIC [7] was 3.12 µM (≈ 8 µg/mL) and the MIC [8] was 6.24 µM (≈ 16 µg/mL). The MIC [5] was 3.12 µM (≈ 8 µg/mL), the MIC [9] was 3.12 µM (≈ 8 µg/mL) and the MIC (Vibrio cholerae CUN 09) was 6.24 µM (≈ 16 µg/mL).

Compound `CC[C@H](C)[C@H](NC(=O)CN)C(=O)N[C@@H](CC(C)C)C(=O)N[C@@H](CC(=O)O)C(=O)N[C@H](C(=O)N[C@@H](Cc1ccccc1)C(=O)N[C@@H](CCCCN)C(=O)NCC(=O)N[C@H](C(=O)N[C@@H](C)C(=O)N[C@@H](CCCCN)C(=O)NCC(=O)N[C@H](C(=O)N[C@@H](C)C(=O)N[C@@H](CCCCN)C(=O)N[C@@H](CC(=O)O)C(=O)N[C@@H](CC(C)C)C(=O)N[C@@H](C)C(=O)N[C@H](C(=O)N[C@@H](Cc1cnc[nH]1)C(=O)N[C@@H](CCSC)C(=O)N[C@@H](CC(C)C)C(=O)N[C@@H](CCC(=O)O)C(=O)N[C@@H](CCCCN)C(=O)N[C@@H](CC(C)C)C(=O)N[C@@H](CCCCN)C(=O)N[C@H]1CSSC[C@@H](C(=O)O)NC(=O)CNC(=O)[C@H]([C@@H](C)O)NC(=O)[C@H](CCSC)NC(=O)[C@H](CCCCN)NC1=O)C(C)C)C(C)C)C(C)C)[C@@H](C)O` [GILDTFKGVAKGVAKDLAVHMLEKLKCKMTGC] has an MIC [3] of 25 µM (≈ 85.1 µg/mL), an MIC [4] of at least 40 µM and an MIC [5] of 40 µM (≈ 136 µg/mL).

In the case of `CC(C)C[C@H](NC(=O)[C@H](Cc1ccccc1)NC(=O)[C@H](CCCN=C(N)N)NC(=O)[C@H](CCCCN)NC(=O)[C@@H](N)CC(C)C)C(=O)N[C@@H](CCCCN)C(=O)N[C@@H](Cc1c[nH]c2ccccc12)C(=O)N[C@@H](Cc1ccccc1)C(=O)N[C@@H](CCCCN)C(=O)N[C@@H](CCCN=C(N)N)C(=O)N[C@@H](Cc1ccccc1)C(N)=O` [LKRFLKWFKRF], the MIC [10] is reported as 10.2 µM (≈ 16 µg/mL), the MIC [11] is reported as 20.4 µM (≈ 32 µg/mL) and the MIC [12] is reported as at least 40.8 µM. It also gave an MIC (Streptococcus mutans) of 8.83 µM (≈ 13.8 µg/mL), an MIC [13] of 10.2 µM (≈ 16 µg/mL) and an MIC [14] of 20.4 µM (≈ 32 µg/mL).

With `CC[C@H](C)[C@H](NC(=O)[C@H](Cc1c[nH]c2ccccc12)NC(=O)[C@H](CCCCN)NC(=O)[C@@H](N)CCCN=C(N)N)C(=O)N[C@@H](Cc1c[nH]c2ccccc12)C(=O)N[C@@H](CCCN=C(N)N)C(=O)N[C@@H](Cc1c[nH]c2ccccc12)C(=O)N[C@@H](Cc1ccccc1)C(=O)N[C@@H](CC(C)C)C(=O)O` [RKWIWRWFL] the MIC [15] was 1.58 µM (≈ 2.2 µg/mL), the MIC [16] was 3.16 µM (≈ 4.4 µg/mL) and the MIC [17] was 12.2 µM (≈ 17 µg/mL). For the same compound, the MIC [18] was 12.2 µM (≈ 17 µg/mL), the MIC [19] was 1.58 µM (≈ 2.2 µg/mL) and the MIC [20] was 1.58 µM (≈ 2.2 µg/mL). It also gave an MIC [21] of 0.791 µM (≈ 1.1 µg/mL), an MIC [22] of 0.791 µM (≈ 1.1 µg/mL) and an MIC [23] of 1.58 µM (≈ 2.2 µg/mL). For the same compound, the MIC [24] was 1.58 µM (≈ 2.2 µg/mL), the MIC [25] was 1.58 µM (≈ 2.2 µg/mL) and the MIC [26] was 3.16 µM (≈ 4.4 µg/mL). For the same compound, the MIC (Pseudomonas aeruginosa 9) was 6.18 µM (≈ 8.6 µg/mL), the MIC [27] was 0.791 µM (≈ 1.1 µg/mL) and the MIC [28] was 1.58 µM (≈ 2.2 µg/mL). For the same compound, the MIC [29] was 3.16 µM (≈ 4.4 µg/mL), the MIC [30] was 3.16 µM (≈ 4.4 µg/mL) and the MIC [5] was 1.58 µM (≈ 2.2 µg/mL). For the same compound, the MIC [31] was 1.58 µM (≈ 2.2 µg/mL) and the MIC [32] was 0.791 µM (≈ 1.1 µg/mL).

In the case of `CC[C@H](C)[C@H](NC(=O)[C@H](Cc1ccccc1)NC(=O)[C@H](CCCCN)NC(=O)[C@H](Cc1ccccc1)NC(=O)[C@H](CCCN=C(N)N)NC(=O)[C@@H](N)CCCN=C(N)N)C(=O)N[C@@H](CCCN=C(N)N)C(=O)N[C@@H](Cc1c[nH]c2ccccc12)C(=O)N[C@@H](Cc1c[nH]c2ccccc12)C(=O)O` [RRFKFIRWW], the MIC [15] is reported as 6.17 µM (≈ 8.6 µg/mL), the MIC [16] is reported as 6.17 µM (≈ 8.6 µg/mL) and the MIC [17] is reported as at least 50.2 µM. For the same compound, the MIC [18] was 25.1 µM (≈ 35 µg/mL), the MIC [19] was 3.15 µM (≈ 4.4 µg/mL) and the MIC [20] was 3.15 µM (≈ 4.4 µg/mL). For the same compound, the MIC [21] was 6.17 µM (≈ 8.6 µg/mL), the MIC [22] was 6.17 µM (≈ 8.6 µg/mL) and the MIC [23] was at least 50.2 µM. The MIC [24] was 25.1 µM (≈ 35 µg/mL), the MIC [25] was 25.1 µM (≈ 35 µg/mL) and the MIC [26] was 25.1 µM (≈ 35 µg/mL). The MIC (Pseudomonas aeruginosa 9) was 12.2 µM (≈ 17 µg/mL), the MIC [27] was 1.58 µM (≈ 2.2 µg/mL) and the MIC [28] was 25.1 µM (≈ 35 µg/mL). It also gave an MIC [29] of 6.17 µM (≈ 8.6 µg/mL), an MIC [30] of 3.15 µM (≈ 4.4 µg/mL) and an MIC [5] of 3.15 µM (≈ 4.4 µg/mL). The MIC [31] was 3.15 µM (≈ 4.4 µg/mL) and the MIC [32] was 0.43 µM (≈ 0.6 µg/mL).

For `NC(=O)[C@H](Cc1ccccc1)NC(=O)[C@H](Cc1c[nH]c2ccccc12)NC(=O)[C@H](CCCN=C(N)N)NC(=O)[C@H](Cc1c[nH]c2ccccc12)NC(=O)[C@H](CCCN=C(N)N)NC(=O)[C@H](Cc1c[nH]c2ccccc12)NC(=O)[C@@H](N)CCCN=C(N)N` [RWRWRWF], the MIC [10] was 26.8 µM (≈ 32 µg/mL), the MIC [33] was 26.8 µM (≈ 32 µg/mL) and the MIC (Staphylococcus aureus) was 26.8 µM (≈ 32 µg/mL). For the same compound, the MIC [11] was 26.8 µM (≈ 32 µg/mL), the MIC [12] was 26.8 µM (≈ 32 µg/mL) and the MIC [34] was 4.74 µM (≈ 5.65 µg/mL). The MIC [13] was 26.8 µM (≈ 32 µg/mL) and the MIC [14] was at least 53.7 µM.
